According to patent US10688119B2, “Inhibitors of PCSK9 for treatment of lipoprotein metabolism disorders” (Aarhus Universitet, priority 2015, dated 2020):
Entries after “also recorded” stand apart in the source; their conditions may differ.

B1: mAb 5E11: rat monoclonal antibody against the HSPG binding domain; VH SEQ ID NO: 7, VK SEQ ID NO: 5 (antibody, V domains shown)
VH: EVQLQESGPGLVKPSQSLSLTCSVTGYTITSGYDWSWIRRFPGNTMEWMGDISYSGSTNYNPSLKSRVSITRDTSKNQFFLQLNSVTTGDTATYYCAKLPGWGQGTLVTVSS
VL: DVVLTQTPVFLSVTLGDQTSISCRSSQSLEYSDGYTYLEWYLQKPGQSPQLLIYEVSNRFSGVPDRFIGSGSGTDFTLKISRVEPEDLGVYYCFQGTHDPLTFGSGTKLEIK

Experiments:
[1] = in vivo; cited from earlier work
LDLR in HepG2 cells = experiment: LDLR levels in HepG2 cells by Western blot/densitometry (PCSK9 induced LDLR degradation)
Protocol: Purified PCSK9 variants were tested in a cell assay to test their ability to induce degradation of LDLR compared to wild-type PCSK9. Induction of LDLR degradation was analyzed by incubation of HepG2 cells with wild type PCSK9 (WT) or the above PCSK9 mutants and LDLR levels were assessed by Western blotting. HepG2 cells were seeded at a density 250.000 cells per well in 12-well plates. […] Cells were harvested and lysed following 18 hours incubation and LDLR levels were assessed by Western blotting and quantification by densitometry.
The PCSK9 inhibitory effect of overnight incubation with suramin (0-200 μg/ml) was tested in HepG2 cells (FIG. 9 A-B).

[2] = patients with elevated serum cholesterol, oral or subcutaneous Pentosan-polysulfate
Protocol: The patient receives subcutaneous injections of 25-500 mg of the composition at intervals of 1-28 days.
A patient with elevated LDL cholesterol is prescribed a statin treatment. […] The patient is then prescribed a treatment with subcutaneous injections of 25-500 mg of a composition comprising a humanized antibody directed against the HSPG binding site in human PCSK9. The injections take place at intervals of 1-28 days.
A patient with elevated LDL cholesterol levels is prescribed administration of a small molecule compound that is designed to block the HSPG binding site in human PCSK9. The compound is administered orally at a dosis of 0.1-30 mg/kg.
In addition to the statin, the patient is administered a compound inhibiting binding of HSPGs to PCSK9. The administration occurs weekly and with a low dose (25-150 mg) of the compound in combination with statins.
Cholesterol levels are then measured.

PCSK9 = PCSK9 (Homo sapiens, UniProt Q8NBP7); experiment: Microscale Thermophoresis (MST) equilibrium binding to PCSK9; settings: 100 nM labelled PCSK9, PBS+0.05% Tween-20; read-out: KD (affinity for PCSK9, MST)
Protocol: PCSK9 was labeled using the MO-L003 Monolith Blue-NHS labeling kit (NanoTemper Technologies) and a labeling efficiency of 1:1 molar ratio of protein to dye was achieved. PCSK9 was applied at a final concentration of 100 nM. […] MST measurements were performed in standard-treated capillaries (NanoTemper Technologies) on a Monolith NT.115 instrument (NanoTemper Technologies) using 20% LED and 80% MST power. Laser on and off times were 5 s and 35 s, respectively. Negative controls were performed using 100 nM of labelled PCSK9 in MST buffer in all 16 capillaries under the same conditions as mentioned above. […] For each binding partner, the sigmoidal dose-response curves were fitted with GraphPad Prism 6 to yield an average KD value.

[3] = target: T1, R93R96R97R104R105H139 PCSK9 mutant and variants (Homo sapiens, UniProt Q8NBP7, H139A/R104A/R105A/R93A/R96A/R97A); experiment: immunoprecipitation of 35S-mutant PCSK9 and PCSK9 variants; format: binding; settings: 500 μl conditioned hybridoma media
T1 construct: expressed in transfected cells
Protocol: (§1) Western blot of GAPDH is shown as loading control. (B) Western Blot showing LDLR levels in liver of mice 1 hour afterintravenous administration of 10 μg PCSK9 alone or in combination with 50 U Heparin. 50 μg membrane preparations were loaded. As control is shown Western Blot for sortilin, a PCSK9 receptor previously shown not to be target of PCSK9 induced degradation. (C) Quantification of B) Bands were quantified by densitometry and dot plot show the individual level of each sample in percent of vehicle (0.9% NaCl) injected controls with mean values and SEM. […] (D) Autoradiography (16 h exposure) showing immunoprecipitation of native human ^35S labeled PCSK9 by serum (1 μl) from three rats immunized with DNA encoding rat PCSK9 with human HSPG binding domain. As negative controls were used preimmune serum from the animals. (E) Western Blot showing LDLR in HepG2 cells after overnight incubation with preimmune or immune IgG (1 μg/ml). […] (F) Autoradiography (16 h exposure) showing immunoprecipitation of human ^35S-PCSK9 by 24 individual mAbs (500 μl conditioned hybridoma media) selected in ELISA screening performed by Aldevron. […] (G) Bar graphs showing LDLR levels (average of 2-4 experiments with SEM) in HepG2 cells incubated with mAbs (1:10 dilution of conditioned hybridoma media) as analysed by Western Blot. Twelve individual mAb clones give an approximately two-fold increase LDLR. (H) Autoradiography (16 h exposure) showing immunoprecipitation of human ^35S-mutant PCSK9 (with R93R96R97R104R105H139 mutated to alanine residues) by 12 individual mAbs (500 μl conditioned hybridoma media) all showing PCSK9 inhibitory effect. As control was used a polyclonal antibody (pAb, AF3888 from R&D systems). […] As control was used R&D Systems AF3888 (pAb).
(§2) These 12 clones were tested to see whether they can bind an R93R96R97R104R105H139 PCSK9 mutant (FIG. 8H).

[4] = system: R93R96R97R104R105H139 PCSK9 mutant and variants; experiment: as above; format: binding, human; settings: WT, R96R97, R104R105, R93R96R97H139, R93R96R97R104R105H139
Protocol: as §1, §2

Sequence of PCSK9 (Q8NBP7 153-692): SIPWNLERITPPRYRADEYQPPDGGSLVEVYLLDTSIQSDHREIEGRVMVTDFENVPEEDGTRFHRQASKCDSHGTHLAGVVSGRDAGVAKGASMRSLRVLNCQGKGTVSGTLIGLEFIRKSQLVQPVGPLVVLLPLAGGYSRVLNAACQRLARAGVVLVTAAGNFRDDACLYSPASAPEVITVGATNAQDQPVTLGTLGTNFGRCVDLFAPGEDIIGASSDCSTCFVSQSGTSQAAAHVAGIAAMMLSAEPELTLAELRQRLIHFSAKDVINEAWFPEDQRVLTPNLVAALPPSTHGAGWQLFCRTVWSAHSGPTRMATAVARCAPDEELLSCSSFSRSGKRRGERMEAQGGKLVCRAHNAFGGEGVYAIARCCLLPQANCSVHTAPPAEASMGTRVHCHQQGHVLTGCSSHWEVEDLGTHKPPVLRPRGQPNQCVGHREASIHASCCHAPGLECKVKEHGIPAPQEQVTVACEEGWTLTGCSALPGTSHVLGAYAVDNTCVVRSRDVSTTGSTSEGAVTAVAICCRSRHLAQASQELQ

Row | Molecule | median time of absorption from the digestive tract after an oral dose [1] [h] | plateau of cellular LDLR compared to vehicle control (LDLR in HepG2 cells; dose-dependent, HepG2 cells) | serum cholesterol levels [2] | Kd (PCSK9) [µM] | increase of cellular LDLR (LDLR in HepG2 cells; mAbs, 1:10 dilution of conditioned hybridoma media) | binding of R93R96R97R104R105H139 PCSK9 mutant (immunoprecipitation) [3] | immunoprecipitation of 35S-PCSK9 WT and variants (epitope) [4]
1 | pentosan [pentosan sulfate] | 2 | around 400% | decreased serum cholesterol levels | 381 |  |  | 
2 | B1 |  |  |  |  | approximately two fold | not able to bind this mutant | recognize only WT PCSK9; also recorded: recognize epitopes within the HSPG binding domain
